What is called AC50 is the midpoint of the concentration-response curve, whichever way the signal moves.

The text below walks through data of ChEMBL document CHEMBL1201862, “PubChem BioAssay data set” (2004).

Active and inactive are the calls of the source.

Assay [1] is described as follows: Luminescence Cell-Based Dose Response HTS to Identify Activators of Luciferase Translation or Activity in H4 […] Cells. [Related pubchem assays: 1829 (Project Summary), 1814 (Primary HTS)]. Type of assay: functional.
The test system of the next assay is H4. The experiment in a line: Luminescence Cell-Based Dose Response HTS to Identify Activators of 5'UTR Stem-Loop Driven Prion Protein mRNA Translation in H4 Neuroglioblastoma Cells. [Related pubchem assays: 1829 (Project Summary), 1814 (Primary HTS)]. The format is functional. To be noted: Homo sapiens.
The nature of assay [2]: inhibitors of intracellular T. cruzi replication, confirmation, NIH3T3 host cells, beta-gal luminescence (AID 2044).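 Also: intracellular parasites grown in NIH/3T3 mouse fibroblasts as host cells; luminescent beta-galactosidase reporter signal from transgenic T. cruzi replicating inside host cells; inhibitors lower the luminescence signal.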 The format is functional, cell-based.
The nature of assay [3]: cytotoxicity toward NIH3T3 fibroblasts, dose response, counter-screen, cell-based, ATP luminescence, mouse fibroblasts (AID 2010).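 Also: cells exposed to compound for about 90 hours before reading.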 The format is functional.
Assay [4] addresses T1, Corticotropin-releasing factor receptor 2/Corticotropin-releasing factor-binding protein (Homo sapiens, UniProt P24387+Q13324).
T1 sequence (Q13324 whole entry): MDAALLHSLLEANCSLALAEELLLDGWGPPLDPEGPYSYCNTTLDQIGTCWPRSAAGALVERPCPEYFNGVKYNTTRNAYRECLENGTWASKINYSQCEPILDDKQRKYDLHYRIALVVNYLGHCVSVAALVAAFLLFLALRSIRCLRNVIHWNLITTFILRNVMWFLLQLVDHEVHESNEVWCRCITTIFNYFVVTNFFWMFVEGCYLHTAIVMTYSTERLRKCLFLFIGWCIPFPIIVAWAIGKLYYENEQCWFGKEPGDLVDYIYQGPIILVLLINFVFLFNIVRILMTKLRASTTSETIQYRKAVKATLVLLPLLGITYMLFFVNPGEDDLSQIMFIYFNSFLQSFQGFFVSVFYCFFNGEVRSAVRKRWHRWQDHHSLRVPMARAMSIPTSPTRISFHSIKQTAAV
T1 sequence (P24387 whole entry): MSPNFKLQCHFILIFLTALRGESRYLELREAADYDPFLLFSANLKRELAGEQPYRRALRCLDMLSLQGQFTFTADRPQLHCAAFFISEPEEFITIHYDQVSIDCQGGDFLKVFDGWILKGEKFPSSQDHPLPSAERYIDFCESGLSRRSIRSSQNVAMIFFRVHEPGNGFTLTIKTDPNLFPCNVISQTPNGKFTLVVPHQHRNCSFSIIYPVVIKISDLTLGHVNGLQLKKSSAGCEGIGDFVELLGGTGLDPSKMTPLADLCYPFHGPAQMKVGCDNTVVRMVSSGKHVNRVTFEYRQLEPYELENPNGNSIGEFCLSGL
The assay is described as follows: Dose Response confirmation of uHTS hits for small molecule antagonists of the CRF-binding protein and CRF-R2 receptor complex. The note with it: read-out: IC50_Mean. Type of assay: functional.

Assay [5] deals with T1, Corticotropin-releasing factor receptor 2/Corticotropin-releasing factor-binding protein. The assay is described as follows: activators of CRF receptor 2 with binding protein – uHTS hits, confirmation (AID 602473). Type of assay: functional. The note with it: read-out: EC50_Mean.
Assay [6] in a line: HEp-2 cell cytotoxicity, dose response, cytotoxicity control for RSV inhibitor project, HTS (AID 2410). Type of assay: functional. The note with it: human respiratory syncytial virus.
Assay [7] has as its target T2, Calpain-2 catalytic subunit (Sus scrofa, UniProt P43367).
T2 sequence (P43367 whole entry): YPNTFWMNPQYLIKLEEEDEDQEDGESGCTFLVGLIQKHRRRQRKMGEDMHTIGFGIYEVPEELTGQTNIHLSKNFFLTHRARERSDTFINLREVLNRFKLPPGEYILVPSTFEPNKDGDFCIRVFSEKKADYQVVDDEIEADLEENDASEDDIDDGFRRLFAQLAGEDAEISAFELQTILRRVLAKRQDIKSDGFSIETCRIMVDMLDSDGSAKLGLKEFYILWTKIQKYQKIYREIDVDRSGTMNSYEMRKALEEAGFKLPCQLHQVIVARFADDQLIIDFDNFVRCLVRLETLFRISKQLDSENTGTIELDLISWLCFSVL
The experiment in a line: pig calpain II inhibitor potency, dose response, biochemical, fluorogenic peptide substrate (AID 1420). Type of assay: functional.

The nature of assay [8]: THP-1 cell cytotoxicity, dose response, cytotoxicity control for non-replicating M. tuberculosis project (AID 489025). The format is functional.
A short description of assay [9]: growth suppression of PTEN-null colon cells, dose response, cell-based, HCT116 PTEN knockout (AID 1047).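 Also: HCT116 colon tumor cells with PTEN knocked out; cells exposed to compound for 60 hours before readout; potency for loss of cell viability measured by luminescence.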 The format is functional.
Assay [10] is described as follows: growth suppression of beta-catenin-knockout colon cells, dose response, cell-based, HCT116, human colon tumor (AID 1045).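 Also: HCT116 colon tumor cells with beta catenin knocked out; cells exposed to compound for 60 hours.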 Type of assay: functional.
The next assay concerns INS1. The assay is described as follows: beta cell apoptosis inhibitors, cytokine rescue, dose response, luminescence, retest (AID 449756).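 Also: cell death triggered by IL-1 beta plus TNF-alpha plus IFN-gamma mixture; protective hits raise ATP signal compared with cytokine alone wells.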 The format is functional, cell-based. The note with it: Rattus norvegicus.
A short description of assay [11]: Shn3 3'UTR reporter inhibitors, dose response, cell-based, Clone20 osteoblasts, firefly luciferase, cherry-picked (AID 624132).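 Also: firefly luciferase luminescence from reporter carrying the Shn3 3'UTR in osteoblasts.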 Type of assay: functional.
The nature of assay [12]: HepG2 cell cytotoxicity, dose response, cytotoxicity control for Shn3 inhibitor project, CellTiter-Glo, cherry-picked (AID 624134). The format is functional, cell-based.
Assay [13] is described as follows: control 3'UTR Renilla luciferase suppression, dose response, counter-screen for Shn3 inhibitor project, cell-based, Clone20-Shn3RL, cherry-picked (AID 624133). Type of assay: functional. A general note: Counterscreens check selectivity or assay interference.
Assay [14] addresses Induced myeloid leukemia cell differentiation protein Mcl-1 (Homo sapiens, UniProt Q07820). Type of assay: functional.
Assay [15] has as its target T3, Rac GTPase-activating protein 1 (Homo sapiens, UniProt Q9H0H5).
T3 sequence (Q9H0H5 whole entry): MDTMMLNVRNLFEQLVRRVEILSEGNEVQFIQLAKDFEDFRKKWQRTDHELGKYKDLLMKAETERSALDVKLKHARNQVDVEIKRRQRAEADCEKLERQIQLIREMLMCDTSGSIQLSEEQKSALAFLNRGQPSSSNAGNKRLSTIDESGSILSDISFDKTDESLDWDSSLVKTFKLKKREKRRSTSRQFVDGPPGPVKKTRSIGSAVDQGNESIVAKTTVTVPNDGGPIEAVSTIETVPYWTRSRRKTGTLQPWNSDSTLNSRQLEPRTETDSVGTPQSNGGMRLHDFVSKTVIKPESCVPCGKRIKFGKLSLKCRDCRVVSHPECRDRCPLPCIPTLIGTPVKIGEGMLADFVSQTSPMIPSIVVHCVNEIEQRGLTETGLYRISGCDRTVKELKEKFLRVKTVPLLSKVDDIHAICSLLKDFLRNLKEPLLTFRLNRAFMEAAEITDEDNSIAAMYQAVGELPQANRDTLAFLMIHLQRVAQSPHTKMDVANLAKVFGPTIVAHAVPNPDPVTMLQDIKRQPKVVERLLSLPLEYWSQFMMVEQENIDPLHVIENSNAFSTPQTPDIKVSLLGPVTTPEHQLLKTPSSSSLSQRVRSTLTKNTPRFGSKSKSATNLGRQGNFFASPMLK
The experiment in a line: MgcRacGAP GTPase-activating activity inhibitors, confirmation, biochemical, ADP Hunter fluorescence, primary and confirmatory (AID 624330). Type of assay: functional.

The nature of a further assay: cells. The format is functional.
In the next assay the target is T4, Cytochrome P450 1A2 (Homo sapiens, UniProt P05177).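 Also: PubChem cytochrome P450 panel assay, CYP1A2 panel member.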
T4 sequence (P05177 whole entry): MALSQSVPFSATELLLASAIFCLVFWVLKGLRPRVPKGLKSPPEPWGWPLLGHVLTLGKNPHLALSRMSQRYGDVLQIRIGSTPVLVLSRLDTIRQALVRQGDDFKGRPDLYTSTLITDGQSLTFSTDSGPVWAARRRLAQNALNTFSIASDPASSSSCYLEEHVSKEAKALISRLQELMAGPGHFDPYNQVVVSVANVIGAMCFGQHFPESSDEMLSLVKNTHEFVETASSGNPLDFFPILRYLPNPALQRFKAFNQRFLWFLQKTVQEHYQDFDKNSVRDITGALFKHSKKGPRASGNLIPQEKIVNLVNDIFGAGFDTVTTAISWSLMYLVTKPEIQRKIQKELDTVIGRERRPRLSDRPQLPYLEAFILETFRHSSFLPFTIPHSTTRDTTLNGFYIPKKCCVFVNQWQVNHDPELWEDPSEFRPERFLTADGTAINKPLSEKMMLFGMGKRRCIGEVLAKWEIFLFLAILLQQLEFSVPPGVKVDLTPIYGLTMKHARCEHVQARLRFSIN

The next assay addresses Cytochrome P450 3A4 (Homo sapiens, UniProt P08684).
Assay [16] in a line: microbe, parasite or virus in culture. The format is functional. To be noted: Mycobacterium tuberculosis.

Sequence of Induced myeloid leukemia cell differentiation protein Mcl-1 (Q07820 whole entry): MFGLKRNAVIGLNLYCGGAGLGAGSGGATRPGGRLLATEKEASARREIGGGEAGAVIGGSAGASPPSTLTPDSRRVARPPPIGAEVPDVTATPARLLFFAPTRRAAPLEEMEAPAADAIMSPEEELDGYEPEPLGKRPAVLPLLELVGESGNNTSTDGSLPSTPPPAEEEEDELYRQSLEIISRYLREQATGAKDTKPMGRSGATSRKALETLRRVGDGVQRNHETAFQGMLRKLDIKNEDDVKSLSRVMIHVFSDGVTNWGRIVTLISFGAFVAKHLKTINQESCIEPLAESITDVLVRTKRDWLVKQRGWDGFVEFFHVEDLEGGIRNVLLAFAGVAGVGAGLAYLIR
Sequence of Cytochrome P450 3A4 (P08684 whole entry): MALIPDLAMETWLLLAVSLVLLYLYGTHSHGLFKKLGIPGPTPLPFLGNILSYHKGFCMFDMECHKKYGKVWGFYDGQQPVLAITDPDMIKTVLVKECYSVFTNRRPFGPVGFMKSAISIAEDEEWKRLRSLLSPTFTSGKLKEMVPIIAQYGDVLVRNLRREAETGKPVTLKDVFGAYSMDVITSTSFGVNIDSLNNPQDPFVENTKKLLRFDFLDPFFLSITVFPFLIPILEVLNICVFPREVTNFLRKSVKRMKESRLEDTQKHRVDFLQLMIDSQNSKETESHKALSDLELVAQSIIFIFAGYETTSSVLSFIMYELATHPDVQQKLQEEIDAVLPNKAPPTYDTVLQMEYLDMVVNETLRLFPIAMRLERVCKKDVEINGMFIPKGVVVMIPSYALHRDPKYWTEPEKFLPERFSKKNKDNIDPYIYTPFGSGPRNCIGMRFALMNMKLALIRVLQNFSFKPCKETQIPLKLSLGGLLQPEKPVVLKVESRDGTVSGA

For the compound `CC1CCC(NC(=O)Cn2ncc3ccccc32)CC1` (stereo not given), the EC50 (in [1]; in the assay with H4) was > 120 µM (not active) each time. With `O=C(Cn1cnc([N+](=O)[O-])n1)NCCc1ccccc1`, the EC50 is 0.537 µM (active) in [2], > 60 µM (not active) in [3] and > 53 µM (inactive) in assay [5]. Further, the IC50 in [4] was > 47.1 µM (inactive). On to `COc1ccc(CNc2ccc([N+](=O)[O-])cc2C)cc1`, for which, in [6], the CC50 was 35 µM (active). Besides, the IC50 in [7] is listed as 3.81 µM (not active). With `Cc1noc(NS(=O)(=O)c2ccc(NC(=O)c3ccc(N4C(=O)c5ccccc5C4=O)cc3)cc2)c1C`, the IC50 in assay [7] is 4.9 µM (not active). Still for that read-out and setting: next, `SC1=NC[C@H](Cc2cccc3ccccc23)N1CC1CCCCC1`: > 50 µM (not active). As to `Cc1ccc(CN2CCSc3ccc(C(=O)N4CCN(c5ncccn5)CC4)cc32)cc1`, the IC50 in assay [4] was > 47.1 µM (inactive). Also, the EC50 in assay [5] is > 53 µM (inactive). `CC(C)(C)c1csc(NC(=O)c2ccccc2O)n1`: the CC50 in assay [8] is 38.7 µM (active). For the compound `O=C(CCC(=O)N1CCOc2ccccc21)NC1CCCCCC1`, in [4], the IC50 is > 47.1 µM (inactive). The EC50 in [5] is > 53 µM (inactive).

Consider `CN1C(=O)c2ccc(C(=O)NCc3ccc4c(c3)OCO4)cc2C1=O`, for which the IC50 in assay [7] is reported as 23.2 µM (not active). For `Cc1ccc(C2(C)CC(C)(C)N(C(=O)CSc3nnc(C)s3)c3ccccc32)cc1` (stereo not given), the IC50 in [4] is > 47.1 µM (inactive). Moreover, the EC50 in [5] is > 53 µM (inactive). As to `CCCCc1ccc(NC(=O)C2CCCO2)cc1` (stereo not given), the IC50 in assay [7] was 13.4 µM (not active).

As for `CC(=O)N[C@H]1C[C@@H]1c1ccccc1`, the IC50 in [4] was > 47.1 µM (inactive). Besides, the EC50 in assay [5] is > 53 µM (inactive). In the case of `O=C(C1CC1)N1CCc2cc(Br)cc(S(=O)(=O)NC3CCCCC3)c21`, in [7], the IC50 is on record as > 50 µM (not active). Take `c1ccc(N2CCN(c3ncnc4scc(-c5cccs5)c34)CC2)cc1`: the EC50 in assay [9] is 56.8 µM (active); in assay [10] it was 71.5 µM (active). For the same compound, the IC50 in [7] is reported as 1.1 µM (not active). `CC1=C(C#N)C(C(F)(F)F)(C(F)(F)F)NC(c2ccco2)=N1`: the AC50 is 4.65 µM (active) in the assay with INS1, 7.72 µM (active) in [11], > 70 µM (inactive) in assay [12] and 10.1 µM (active) in [13]. For the compound `CCN(CC)c1ccc(NC(=O)c2ccccc2OCC(=O)OC)cc1`, the IC50 in assay [14] is reported as 6.35 µM (not active). With `O=C(/C=C/c1cccs1)N1CCOCC1`, the IC50 in assay [7] is reported as > 50 µM (not active). As to `COc1ccccc1-c1c(NC(=O)C(C)C)n(C)c2ccccc2c1=O`, the IC50 in [4] is > 47.1 µM (inactive). Moreover, the EC50 in assay [5] is > 53 µM (inactive). In the case of `CCOc1cc(/C=C(\C#N)c2n[nH]c(N)c2C#N)ccc1O`, the IC50 was 5.24 µM (active) in assay [14] and 17.1 µM (active) in assay [15]. Regarding `CC1(C(=O)OCC(=O)Nc2nnc(-c3ccccc3)o2)CC1(Cl)Cl` (stereo not given), the CC50 in assay [8] is > 40 µM (active). Moreover, the IC50 in the assay “cells” is 24.9 µM (active). For the compound `CCNc1nc(NCC)nc(C(=O)NN)n1`, the IC50 in assay [14] is 2.32 µM (active).

As for `CC1CCCN(C(=O)c2sc3cc([N+](=O)[O-])ccc3c2Cl)C1` (stereo not given), the IC50 in assay [7] is 7.61 µM (active). Also, the concentration at half-maximal activity (AC50) on Cytochrome P450 1A2 is 15.8 µM (inconclusive); at Cytochrome P450 3A4, 17.8 µM (inconclusive).

For `O=C(C[C@H]1C/C=C\C[C@@H](Cc2ccc(F)cc2)C(=O)O[C@H](c2ccccc2)CNC1=O)NCCO`, the IC50 in [4] is > 47.1 µM (inactive). The EC50 in assay [5] was > 53 µM (inactive). For `Cc1cccc(C(=O)Oc2ccc(/C=N/NC(=O)c3ccc(O)cc3)cc2)c1`, in that order: > 47.1 µM (inactive) and > 53 µM (inactive). As for `CC(/C=N/NC(=O)c1cc(-c2ccc3ccccc3c2)[nH]n1)=C\c1ccco1`, the CC50 in assay [16] is 37.2 µM (active). Besides, the IC50 in [14] is 4.1 µM (active). For `Cc1cc([N+](=O)[O-])c(-c2ccc(/C=N/n3cnnc3)o2)cc1Cl`, in assay [7], the IC50 is recorded as 1.59 µM (not active).

As for `C/N=C1/S/C(=C\c2ccc(OCC(=O)OC)c(OC)c2)C(=O)N1C`, the CC50 in assay [8] was > 40 µM (active). Also, in the assay “cells”, the IC50 is 4.45 µM (active).
